From patent US9394519B2, “Methods to produce mast cell culture” (Apollonian Biosystems Limited, priority 2011, dated 2016)
Ends that are not written are not given here.

How the values were obtained:
mast cell tryptase = test: Cell-based assay for screening tryptase inhibitors (MCP-1 degradation in medium of anti-IgE-stimulated mast cells); set-up: species or system human; conditions: for Inhibition of the degradation of MCP-1 in the reaction medium: 6-hour reaction medium of anti-IgE-stimulated mast cells incubated with inhibitor at 37° C. for 16 hours, FIG. 7
Method: Primary human mast cells with functional phenotype of connective tissue-type mast cells were derived from peripheral blood using the protocol described in Example 1. Cells were stimulated via the high-affinity IgE receptors (FcERI) using an anti-IgE antibody and kept under various conditions (see conditions A to G below) for 6 hours and 16 hours. The supernatants were then collected and the MCP-1 level in the supernatants was determined.

human mast cells [1] = test: Mast cell activation: release of histamine, PGD2 and IL-8 in response to stimuli; format: cell-based; conditions: human mast cells generated in Example 1, cultured 6 weeks or more; FIGS. 1-4
Method: To validate that the human mast cell cultures are functionally responsive, the release of histamine, prostaglandin D2 (PGD2) and interleukin-8 (IL-8) in response to stimulations by anti-IgE, aggregated IgG1, Toll-like receptor ligands, Substance P, compound 48/80 and ionophores was measured.
Cultured mast cells at week 6, week 9 and week 12 were harvested, counted and seeded into 24-well plates in complete IMDM with 100 ng/ml SCF and 50 ng/ml IL-6. • IgE-dependent activation: Human mast cells were first sensitized by 0.5 μg/ml human myeloma IgE (Merck) in culture medium overnight. Unbound IgE was then removed by washing once with PBS. […]
Histamine released into the reaction buffer and the remaining granular histamine in the pellets were collected and analyzed by using Bran+Luebbe Autoanalyzer (AAIII Autoanalyzer, Bran+Luebbe, Germany) which chemically extracted histamine from the samples as described by Siraganian (Siraganian, R. P. 1974, Analytical Biochemistry 57(2): 383-394). […] For all stimulation studies, histamine released into the supernatant was expressed as a percentage of total cellular histamine content and all histamine release values were corrected for the spontaneous histamine release in buffer alone. […]

human mast cells [2] = test: Inhibition of IgE-dependent degranulation (histamine release in response to anti-IgE); format: cell-based; conditions: IgE-sensitized human mast cells challenged with anti-IgE; FIG. 5
Method: Cultured mast cells at week 6, week 9 and week 12 were harvested, counted and seeded into 24-well plates in complete IMDM with 100 ng/ml SCF and 50 ng/ml IL-6. • IgE-dependent activation: Human mast cells were first sensitized by 0.5 μg/ml human myeloma IgE (Merck) in culture medium overnight. Unbound IgE was then removed by washing once with PBS. The cells were then resuspended in full HEPES buffer (FHB: 137 mM NaCl, 5.56 mM glucose, 12 mM HEPES, 2.7 mM KCl, 0.4 mM NaH2PO4 and 1 mM CaCl2 at pH 7.4) supplemented with 0.03% human albumin (HA) (for release of histamine and PGD2) or in IMDM with 10% FBS (for release of IL-8). […] 3.b Histamine Release Histamine released into the reaction buffer and the remaining granular histamine in the pellets were collected and analyzed by using Bran+Luebbe Autoanalyzer (AAIII Autoanalyzer, Bran+Luebbe, Germany) which chemically extracted histamine from the samples as described by Siraganian (Siraganian, R. P. 1974, Analytical Biochemistry 57(2): 383-394). […] For all stimulation studies, histamine released into the supernatant was expressed as a percentage of total cellular histamine content and all histamine release values were corrected for the spontaneous histamine release in buffer alone.

`CC(C)C[C@H](NC(=O)[C@@H](NC(=O)N[C@@H](Cc1ccccc1)C(=O)O)[C@@H]1CCN=C(N)N1)C(=O)N[C@H](C=O)Cc1ccccc1` [Chymostatin] was tested, and the “Inhibition of the degradation of MCP-1 in the reaction medium” value (mast cell tryptase) was “not”.

With `CC(C)C[C@H](NC(=O)[C@@H](O)[C@H](N)Cc1ccccc1)C(=O)O` [Bestatin] the “Inhibition of the degradation of MCP-1 in the reaction medium” value (mast cell tryptase) was “not”.

“Substance P (RPKPQQFFGLM; ends and bridges not checked; UniProt P20366 58-68, looked up)” was tested, and the “Release of histamine, PGD2 and IL-8 in response to stimulation” value (human mast cells [1]) was “Release of histamine, PGD2 and IL-8 was observed”.

`NC(=O)[C@@H]1CCCN1C(=O)[C@H](CCCN=C(N)N)NC(=O)c1ccc2ccccc2c1O` [APC366] was tested, and the “MCP-1 level relative to condition A (peak MCP-1 level at the 6th hour after stimulation)” value (mast cell tryptase; inhibitor added at 6th hour, 16 hours at 37° C., FIG. 8) was “approximate the same”.

`CC(C)(C)NCC(O)c1ccc(O)c(CO)c1` (centres unmarked) [Salbutamol] was tested, and the “Inhibition of IgE-dependent degranulation (histamine release)” value (human mast cells [2]) was “can be inhibited”.
